In brackets after ≈: the same amount, converted by molar mass.
How the values were obtained:
Candida albicans = assay: Antifungal activity against Candida albicans by dilution method; format: functional
[1] = test system: Mycobacterium tuberculosis; assay: Antimycobacterial activity against Mycobacterium tuberculosis H37Rv by MABA method; format: functional

Compound | MIC (Candida albicans) | MIC90 [1]
COc1ccc(/C=C/C(=O)c2ccc(N3C(=O)C(Br)=C(Br)C3=O)cc2)cc1 | 1000 µg/mL (≈ 2040 µM) | 500 µg/mL (≈ 1020 µM)
O=C(/C=C/c1ccccc1)c1ccc(N2C(=O)C(Br)=C(Br)C2=O)cc1 | 250 µg/mL (≈ 542 µM) | 500 µg/mL (≈ 1080 µM)
COC1=CC(=O)C[C@@H](C)[C@]12Oc1c(Cl)c(OC)cc(OC)c1C2=O [GRISEOFULVIN] | 500 µg/mL (≈ 1420 µM) | –
O=C(/C=C/c1ccc(O)cc1)c1ccc(N2C(=O)C(Br)=C(Br)C2=O)cc1 | 150 µg/mL (≈ 314 µM) | 60 µg/mL (≈ 126 µM)
O=C(/C=C/c1ccccc1O)c1ccc(N2C(=O)C(Br)=C(Br)C2=O)cc1 | 100 µg/mL (≈ 210 µM) | 50 µg/mL (≈ 105 µM)
NNC(=O)c1ccncc1 [ISONIAZID] | – | 0.2 µg/mL (≈ 1.46 µM)
Cc1ccc(/C=C/C(=O)c2ccc(N3C(=O)C(Br)=C(Br)C3=O)cc2)cc1 | 1000 µg/mL (≈ 2100 µM) | 500 µg/mL (≈ 1050 µM)
O=C(/C=C/c1cccc([N+](=O)[O-])c1)c1ccc(N2C(=O)C(Br)=C(Br)C2=O)cc1 | 250 µg/mL (≈ 494 µM) | 200 µg/mL (≈ 395 µM)
O=C(/C=C/c1ccccc1Cl)c1ccc(N2C(=O)C(Br)=C(Br)C2=O)cc1 | 1000 µg/mL (≈ 2020 µM) | 250 µg/mL (≈ 504 µM)
COc1ccc(/C=C/C(=O)c2ccc(N3C(=O)C(Br)=C(Br)C3=O)cc2)cc1OC | 500 µg/mL (≈ 959 µM) | 500 µg/mL (≈ 959 µM)
NYSTATIN | 100 µg/mL | –
O=C(/C=C/c1ccc(Cl)cc1)c1ccc(N2C(=O)C(Br)=C(Br)C2=O)cc1 | 250 µg/mL (≈ 504 µM) | 100 µg/mL (≈ 202 µM)
COc1ccc(/C=C/C(=O)c2ccc(N3C(=O)C(Br)=C(Br)C3=O)cc2)cc1[N+](=O)[O-] | 1000 µg/mL (≈ 1870 µM) | 1000 µg/mL (≈ 1870 µM)
O=C(/C=C/c1ccc(Cl)cc1Cl)c1ccc(N2C(=O)C(Br)=C(Br)C2=O)cc1 | 500 µg/mL (≈ 943 µM) | 500 µg/mL (≈ 943 µM)
